This note sets out measurements from patent publication US10228378B2, “Diagnostic and therapeutic methods and products related to anxiety disorders” (The University of Vermont and State Agricultural College, priority 2011, dated 2019).

Where “and” joins values, the source holds several entries; their conditions need not be identical. Equal values may be shown once. Entries after “also recorded” stand apart in the source; their conditions may differ. No end group written: not given here.

Data set [1] deals with Sprague-Dawley rats. The data set is described as follows: Novel object exploration test after chronic BNST PACAP(6-38) infusion during repeated variate stress. The format is in vivo, rat. The conditions noted are these: for effect on stress induced anxiety-related responses, novel object test: chronic BNST infusion, stressed rats. Here is the method: (§1) Similar procedures were followed for chronic infusions. Once the BNST cannulae (Plastics One, Roanoke, Va.; No. 328OP/SPC) and skullcap were in place, the cannulae were attached to a single bifurcation connector (Plastics One, Roanoke, Va.; No. 21y) using 3 mm catheter tubing (Alzet, Cupertino, Calif.: OC 1.14 mm, ID 0.69 mm). The bifurcation connector was attached to 6.7 cm of catheter tubing attached to a mini-osmotic pump (Alzet, Cupertino, Calif.; No. 2002, 200 μl volume, 0.5 μl/h) containing either antagonist PACAP(6-38) (American Peptide Co., Sunnyvale, Calif.; 75 μM) or vehicle (0.05% BSA in saline). Long term PACAP(6-38) stability at 37° C. was assessed separately by daily aliquot removal for intact and amidated peptide radioimmunoassays. Peptide loss was 4%/day; final minipump PACAP(6-38) concentration at the end of the study was approximately 40 μM. All catheters were filled with vehicle to delay antagonist infusion into the BNST before the repeated variate stress procedure. The minipumps were primed according to manufacturer's instructions and secured subcutaneously in the interscapular space. The rats were returned to their home cages for 6 day postsurgical recovery; all rats were monitored for food/water intake and weighed daily.
Following acclimation or postsurgery recovery, each animal was randomly assigned to either a control or chronically stressed group. Control group animals remained in their home cages until euthanasia. […]
To determine whether BNST PACAP receptor signaling mediates the behavioral consequences of repeated stress, osmotic minipumps were attached to bilateral indwelling cannulae to chronically infuse the BNST with PACAP(6-38), a PAC1 receptor antagonist, during the seven day repeated variate stress procedure (see above, FIG. 13A). Animal weight and food intake were monitored daily during the entire duration of the experiment, and the animals were evaluated on the elevated plus-maze and novel-object exploration tests 24-48 hours after the last stressor exposure. […]

In data set [2] the test system is Sprague-Dawley rats. Briefly: Elevated plus-maze after chronic BNST PACAP(6-38) infusion during repeated variate stress. The format is in vivo, rat. How it is done: as §1, with “All catheters were filled with vehicle to delay antagonist infusion into the BNST before the repeated variate stress procedure. The minipumps were primed according to manufacturer's instructions and secured subcutaneously in the interscapular space.” left out, “daily. […]” for “daily.”
(§2) A plus maze of black painted wood and elevated 74 cm from the floor consisted of two opposing open and two opposing closed arms (each arm 60 cm long and 9 cm wide), which extended perpendicularly from a central square platform (9×9 cm). […] The sessions were captured digitally, and the time spent in the open and closed arms and the total number of crosses into the open arms were scored. […]

A short description of data set [3]: Long term PACAP(6-38) stability at 37° C. by radioimmunoassay. The data set is classed as physicochemical. Here is the method:
as §1

Data set [4] is described as follows: Body weight during chronic BNST PACAP(6-38) infusion and repeated variate stress. The format is in vivo, rat. How it is done:
as §1, with “The minipumps were primed according to manufacturer's instructions and secured subcutaneously in the interscapular space.” left out, “daily. […]” for “daily.”
Weight data were analyzed using a 2×2×7 mixed ANOVA with stress and antagonist treatment as between subjects variables and percent weight change during the stress period as within subjects variables. […]

Data set [5] can be described thus: Body weight after acute BNST PACAP38 infusion. The data set is classed as in vivo, rat. The conditions noted are these: 24 hours after BNST infusion. From the text: For acute infusion studies, rats were anesthetized with isoflurane vapor and secured in a stereotaxic apparatus. After skin incision, the skull was exposed and four screws were inserted to provide skullcap stability. Two stainless steel cannulae (26 gauge, Plastics One, Roanoke, Va.) were lowered at a 20 degree angle just above the anterolateral bed nucleus of the stria terminalis (BNST), from bregma in mm; AP=−0.3, ML=±3.8 and DV=−5.3 from the surface of the dura. A skullcap was created with dental cement to hold the cannulae in place. One week after cannulation, the rats were acutely infused bilaterally into the BNST with PACAP38 (American Peptide Co., Sunnyvale, Calif.; 0.1, 0.5 or 1 μg in 0.5 μl) or saline/bovine serum albumin (BSA) vehicle; the infusion cannulae were left in place for 1 min before removal.
To further characterize the behavioral consequences of BNST PACAP38 infusion, rats were implanted with bilateral cannulae targeted at the BNST. One week following implantation, rats received BNST infusions of PACAP38 (1 μg/0.5 μl) or vehicle, and were tested for anxiety-like responses. Consistent with an anxiogenic effect of BNST PACAP on baseline acoustic startle responding, BNST PACAP38 infusion was anxiogenic on the elevated-plus maze as measured by open arm time (FIG. 12A, df=8, t=3.3, p=0.01).

Data set [6] concerns Sprague-Dawley rats. Briefly: Elevated plus maze after acute BNST PACAP38 infusion. The conditions noted are these: BNST infusion 1 μg/0.5 μl vs vehicle. The format is in vivo, rat.
Source text: For acute infusion studies, rats were anesthetized with isoflurane vapor and secured in a stereotaxic apparatus. After skin incision, the skull was exposed and four screws were inserted to provide skullcap stability. Two stainless steel cannulae (26 gauge, Plastics One, Roanoke, Va.) were lowered at a 20 degree angle just above the anterolateral bed nucleus of the stria terminalis (BNST), from bregma in mm; AP=−0.3, ML=±3.8 and DV=−5.3 from the surface of the dura. A skullcap was created with dental cement to hold the cannulae in place. […]
as §2
To further characterize the behavioral consequences of BNST PACAP38 infusion, rats were implanted with bilateral cannulae targeted at the BNST. […] Consistent with an anxiogenic effect of BNST PACAP on baseline acoustic startle responding, BNST PACAP38 infusion was anxiogenic on the elevated-plus maze as measured by open arm time (FIG. 12A, df=8, t=3.3, p=0.01).

The test system of data set [7] is ADCYAP1R1 transcripts. Briefly: Quantitative PCR of ADCYAP1R1 transcripts in BNST of ovarectomized female rats after estradiol implants. The data set is classed as in vivo, rat. The conditions noted are these: OVX female rats, 21-day continuous release pellets, vs control implants. From the text:
(§3) To establish the relationship between PACAP/PAC1 receptors and estrogen in a validated model of sex hormone regulation, estrogen-induced changes in ADCYAP1 and ADCYAP1R1 transcripts in the bed nucleus of stria terminalis (BNST) in female rats was examined. The BNST is a component of the extended amygdala that is subject to significant gonadal hormonal control. In rodents, it is critical for emotional behavior, mediating stress responses and the light-enhanced startle response. Quantitative PCR was performed (Hammack et al., Psychoneuroendocrinology 34, 833-43 (2009); Girard et al., J Neurochem 99(2): 499-513 (2006); Braas et al., Peptides September 28(9):1856-70 (2007)). Rats were implanted with 21-day continuous release pellets for delivery of estrogen. After rat euthanasia, the different brain regions were quickly dissected and frozen on dry ice. The tissues were homogenized in Stat-60 total RNA/mRNA isolation reagent (Tel-Test “B”, Friendswood, Tex.). […] Real-time quantitative PCR methods and oligonucleotide primers were exactly as described previously. The melting profiles for amplified DNA fragments were performed to verify unique product amplification in the quantitative PCR assays. […]

Data set [8] deals with ADCYAP1 transcripts. Briefly: Quantitative PCR of ADCYAP1 transcripts in BNST of ovarectomized female rats after estradiol implants. The format is in vivo, rat. The conditions noted are these: OVX female rats, 21-day continuous release pellets, vs control implants.
Source text: as §3

[9] abbreviates: chronic BNST infusion by minipump (75 μM, 0.5 μl/h), stressed and non-stressed rats.

Consider “Phe-Thr-Asp-Ser-Tyr-Ser-Arg-Tyr-Arg-Lys-Gln-Met-Ala-Val-Lys-Lys-Tyr-Leu-Ala-Ala-Val-Leu-Gly-Lys-Arg-Tyr-Lys-Gln-Arg-Val-Lys-Asn-Lys (FTDSYSRYRKQMAVKKYLAAVLGKRYKQRVKNK) [PACAP(6-38)]”, for which the “anxiety-like behavior on novel object test” value in data set [1] (setting [9]) is “anxiolytic”. The “effect on stress induced anxiety-related responses, novel object test” value was “reverse the anxiogenic effect of stress” in data set [1] and “attenuated the stress induced anxiety-related responses” in data set [1] (listed as PACAP receptor antagonist). Moreover, the “anxiety-like behavior on elevated plus maze” value in data set [2] (setting [9]) is recorded as “anxiolytic”. In addition, the “effect on stress induced anxiety-related responses, elevated plus-maze” value in data set [2] (chronic BNST infusion, stressed rats) is on record as “attenuated the stress induced anxiety-related responses”. This compound also had a Peptide loss in data set [3] (intact and amidated peptide radioimmunoassays) of 4 %/day. Further, in data set [3] (start 75 μM), the “final minipump concentration at the end of the study” value was “approximately 40 μM”. Further, in data set [4] (chronic BNST infusion, no stress), the “effect on body weight, non-stressed rats” value was “no apparent effects; also recorded: gained weight steadily”. Also, the “effect on weight gain, stressed rats” value in data set [4] (continuous BNST infusion during seven day repeated variate stress) is on record as “blocked the stress-induced changes in weight gain; also recorded: gained weight comparable to controls”.
On to “PACAP38: 38-amino acid peptide form of PACAP (American Peptide Co.) (HSDGIFTDSYSRYRKQMAVKKYLAAVLGKRYKQRVKNK; ends and bridges not checked)”, for which, in data set [5], the “weight loss compared to vehicle-infused rats” value is reported as “significantly more weight loss”. Besides, in data set [5] (compared to vehicle controls), the weight loss entry is recorded as “approximately 8 % of body weight”. In data set [6], the “anxiety-like behavior on elevated-plus maze as measured by open arm time” value is on record as “anxiogenic; also recorded: decreased open arm times” and the “locomotor activity as measured by total number of arm entries” value is given as “not affected; also recorded: not changed”.
On to `C[C@]12CC[C@@H]3c4ccc(O)cc4CC[C@H]3[C@@H]1CC[C@@H]2O` [estradiol], for which the “increase of ADCYAP1R1 mRNA, dorsal BNST” value in data set [7] was 1.5 fold and 1.6 fold. In data set [8], the “increase of ADCYAP1 transcripts, dorsal BNST” value is recorded as 2.1 fold and the “increase of ADCYAP1 transcripts, ventral BNST” value came to 3.4 fold.
